Values of other authors in patent US20130018223A1, “METHOD FOR TIMING A COLONOSCOPY” (priority 2011, published 2013).

Structure (SMILES): [O]=[Mg] [Magnesium oxide]
- solubility in alcohol: not soluble
